Paper PMC9239272 (mBio, 2022)

Legend:
SARS2 M^pro P168G [1] = format: cell-based, SARS-CoV-2
SARS2 M^pro Q189E = format: cell-based, SARS-CoV-2
SARS2 M^pro P168S [2] = format: cell-based, SARS-CoV-2
SARS2 M^pro P168G [3] = format: cell-based, SARS-CoV-2; remark: listed apart in the source
SARS2 M^pro M49I = format: cell-based, SARS-CoV-2
P168S SARS2 M^pro = P168S SARS2 M^pro (Severe acute respiratory syndrome coronavirus 2, UniProt P0DTD1, P3431S); format: biochemical, SARS-CoV-2
P168G SARS2 M^pro = P168G SARS2 M^pro (Severe acute respiratory syndrome coronavirus 2, UniProt P0DTD1, P3431G); format: biochemical, SARS-CoV-2
SARS2 M^pro Q189N = format: cell-based, SARS-CoV-2
SARS2 M^pro M49D = format: cell-based, SARS-CoV-2
SARS2 M^pro P168S [4] = format: cell-based, SARS-CoV-2; remark: listed apart in the source
[5] = test system: SARS2 H132 (Omicron) M^pro; format: cell-based, SARS-CoV-2

| Molecule | eGFP signal localization compared with wild-type construct (SARS2 M^pro P168G [1]) | effect of amino acid change on inhibition (SARS2 M^pro Q189E) | average increase in luciferase signal over wild type (SARS2 M^pro P168S [2]) [fold] | effect of amino acid change on inhibition (SARS2 M^pro P168S [2]) | average increase in luciferase signal over wild type (SARS2 M^pro P168G [3]) [fold] | effect of amino acid change on inhibition (SARS2 M^pro P168G [3]) | effect of amino acid change on inhibition (SARS2 M^pro M49I) | lower IC50 than wild-type Mpro (P168S SARS2 M^pro) | lower IC50 than wild-type Mpro (P168G SARS2 M^pro) | effect of amino acid change on inhibition (SARS2 M^pro Q189N) | effect of amino acid change on inhibition (SARS2 M^pro M49D) | eGFP signal localization compared with wild-type construct (SARS2 M^pro P168S [4]) | sensitivity of Omicron (P132H) Mpro [5] | decrease of inhibitor efficacy versus wild type (SARS2 M^pro Q189N) [fold] | decrease of inhibitor efficacy versus wild type (SARS2 M^pro M49D) [fold] |
| --- | --- | --- | --- | --- | --- | --- | --- | --- | --- | --- | --- | --- | --- | --- | --- |
| CC(C)(C)NC(=O)N[C@H](C(=O)N1C[C@H]2[C@@H]([C@H]1C(=O)NC(CC1CCC1)C(=O)C(N)=O)C2(C)C)C(C)(C)C (stereo partly shown) [boceprevir] | increase in membrane-tethered cytosolic eGFP signal | slight resistance | 4 | hypersensitivity | 4 | hypersensitivity | slight resistance | approximately 10 fold | approximately 10 fold | slight resistance | slight resistance | increase in membrane-tethered cytosolic eGFP signal | – | – | – |
| CC(C)(C)[C@H](NC(=O)C(F)(F)F)C(=O)N1C[C@H]2[C@@H]([C@H]1C(=O)N[C@H](C#N)C[C@@H]1CCNC1=O)C2(C)C [nirmatrelvir] | – | – | – | – | – | – | – | – | – | – | – | – | retains sensitivity | – | – |
| GC376 | – | minimal effects | – | minimal effects | – | minimal effects | minimal effects | – | – | – | – | – | – | 1.8 | 2.1 |
